Measured values reported in publication PMC4841536, “Characterization of the Anti-HCV Activities of the New Cyclophilin Inhibitor STG-175” (PLoS ONE, 2016).
Like-named read-outs stand apart in the source and are kept apart here.

Key:
[1] = tested on: Con1 (GT1b) replicon colonies D, E (D320E/Y321N NS5A); assay: microbe, parasite or virus in culture; format: cell-based, hepatitis C virus; settings: for EC50: Hepatitis C virus, GT1B
Protocol: (§1) Huh-7 cells expressing subgenomic Con1 (GT1b) replicon were incubated with STG-175 and 100 μg/ml of G418 in 10 cm CellBIND™ plates (Corning). Cells were split every 3 days at 1:6 and G418 concentration was increased sequentially to 200 and 300 μg/mL. […] At this point, medium was changed every 3–4 days until emergence of resistant clones. Clones were individually transferred to 24-well CellBIND using cloning disks. […] Each clone was split in 2 identical plates and was separately maintained under 0.5 or 1.0 μM STG-175 and 100 μg/mL of G418. Once the colonies were established, G418 concentration was increased to 300 μg/mL. […] Briefly, total RNA was prepared using the RNeasy Plus Mini Kit as per manufacturer’s recommendation. Two hundred ng of total RNA was used for cDNA production using primers specific to the NS3-NS5B region or oligo(dT)18 using AccuScript High Fidelity 1st Strand cDNA Synthesis Kit (Stratagene). Amplicons were generated using primers defining the sequence at its 5’ and 3’ ends. The amplicons were gel purified, quantitated and sequenced using primers located internally in NS5A or NS5B reading to the 5’ and 3’ ends. Sequences were assembled and analyzed using the ClustalW algorithm within the MacVector program. The sequencing was conducted twice to ensure the authenticity of the nucleotide substitutions.
(§2) Fig 3 Replicon clearance, replication rebound and resistance analyses. […] Then drugs were removed to allow viral replication rebound to occur. At each passage, samples of cells were collected, RNA extracted and analyzed by RT-PCR for HCV RNA levels. B. Emergence of resistance: Con1 replicon Huh-7 cells were passaged 22 times in the absence or presence of STG-175 or selected DAAs. At each passage, sample of cells were collected, RNA extracted and analyzed by RT-PCR for HCV RNA levels. C. […] Data are expressed as number of HCV RNA copies per cell. […] Data are expressed as mean of relative light units and calculated EC50s are presented. […] E. Degree of resistance of D320E and Y321N Con1 variants: Left panel. Wild-type (WT), D320E and D320/Y321N NS5A Con1 RNA were electroporated into Huh7.5.1 cells and replication monitored over 8 days by quantifying the levels of intracellular HCV RNA. Right panel. Same as just above except that increasing concentrations of STG-175 were added at the time of the electroporation. […] STG-175 is taken as the substance from the printed x-axis title 'STG-175 in Log nM'.
(§3) We then sequenced the NS3-NS5B region of the HCV variants (colonies), which emerged after multiple passages under STG-175 selection. […] The five STG-175-resistant variants (5 colonies A to E) were then retested for STG-175 resistance by exposing them to increasing concentrations of STG-175 as we described previously.

[2] = tested on: Con1 (GT1b) replicon colonies A, B, C (D320E NS5A); assay: microbe, parasite or virus in culture; format: cell-based, hepatitis C virus; settings: for EC50: Hepatitis C virus, GT1B
Protocol: as §1, §2, §3

[3] = tested on: HIV-1 (JR-CSF) in activated PBMCs; assay: Mono-infection, HIV-1 capsid/p24 ELISA; format: cell-based; settings: added together with virus, 12 days
Description: For mono-infections: a) human hepatoma Huh7.5.1 cells were infected with HCV (JFH-1) and viral replication was quantified by HCV core ELISA (Ortho HCV antigen ELISA kit; Ortho Clinical Diagnostics, Waco Chemicals, Inc. or HCV Core ELISA, XpressBio); b) sodium-taurocholate co-transporting polypeptide (NTCP)-positive Huh7 cells were infected with hepatitis B virus (HBV) AD38 (produced from HepAD38 cells) and viral replication was quantified by HBV HBeAg ELISA; and c) human (peripheral blood monocytic cells (PBMCs) were infected with HIV-1 (JR-CSF) and viral replication was quantified by HIV-1 capsid/p24 ELISA. PBMCs were isolated as described previously. The Scripps Research Institute Normal Blood Donor Service (TSRI NBDS) provides TSRI investigators who have Human Subjects Committee-approved protocols with a source of normal blood for their research. Donors are assured of a controlled clinical setting for their blood to be drawn by licensed phlebotomists, and investigators are assured that the donors whose specimens they obtain through the service have been screened upon entry into the program and annually thereafter for a CBC, Hepatitis B and C and HIV-1. Hemoglobin determinations at every donation protect the donor from phlebotomy-induced anemia. […]

**Q.** `CC=CCC(C)C(O)C1C(=O)NC(CC)C(=O)N(C)C(CSCCCCO)C(=O)N(C)C(CC(C)(C)O)C(=O)NC(C(C)C)C(=O)N(C)C(CC(C)C)C(=O)NC(C)C(=O)NC(C)C(=O)N(C)C(CC(C)C)C(=O)N(C)C(CC(C)C)C(=O)N(C)C(C(C)C)C(=O)N1C` (stereo not shown) [STG-175] was tested. Which “average fold higher resistance than wild-type colonies, colonies D and E” value [1] did it give?
**A.** 33.8 fold

**Q.** And the “enhancement of resistance compared to wild-type replicon, colony D” value [1]?
**A.** 48.8 fold

**Q.** And the “enhancement of resistance compared to wild-type replicon, colony E” value [1]?
**A.** 18.9 fold

**Q.** What about the EC50 ([1]; read-out: EC50, colony D (Clone D)) of the same compound?
**A.** 766 nM

**Q.** What about the EC50 ([1]; read-out: EC50, colony E (Clone E)) of the same compound?
**A.** 297 nM

**Q.** And the EC50 ([1]; read-out: average EC50, colonies D and E)?
**A.** 531 nM

**Q.** And the “average fold higher resistance than wild-type colonies, colonies A, B and C” value [2]?
**A.** 10 fold

**Q.** What about the “enhancement of resistance compared to wild-type replicon, colony A” value [2] of the same compound?
**A.** 7.2 fold

**Q.** And the “enhancement of resistance compared to wild-type replicon, colony B” value [2]?
**A.** 7.8 fold

**Q.** And the “enhancement of resistance compared to wild-type replicon, colony C” value [2]?
**A.** 15.1 fold

**Q.** What about the EC50 ([2]; read-out: EC50, colony A (Clone A)) of the same compound?
**A.** 114 nM

**Q.** What about the EC50 ([2]; read-out: EC50, colony B (Clone B)) of the same compound?
**A.** 122 nM

**Q.** What about the EC50 ([2]; read-out: EC50, colony C (Clone C)) of the same compound?
**A.** 238 nM

**Q.** What about the EC50 ([2]; read-out: average EC50, colonies A, B and C) of the same compound?
**A.** 158 nM

**Q.** And the “HIV-1 infection (HIV-1 capsid ELISA)” value ([3]; 0.5 μM)?
**A.** significantly decreased infection

**Q.** What about the “HIV-1 infection (HIV-1 capsid ELISA)” value ([3]; 5 μM) of the same compound?
**A.** fully blocked
